# pIC50: −log10 of the molar value.
# Biological target: T1, USP25 (USP25-His6, Boston Biochem E-546) (Homo sapiens, UniProt Q9UHP3)
# T1 construct: His6; purchased Boston Biochem E-546
# T1 sequence (Q9UHP3 1-1055): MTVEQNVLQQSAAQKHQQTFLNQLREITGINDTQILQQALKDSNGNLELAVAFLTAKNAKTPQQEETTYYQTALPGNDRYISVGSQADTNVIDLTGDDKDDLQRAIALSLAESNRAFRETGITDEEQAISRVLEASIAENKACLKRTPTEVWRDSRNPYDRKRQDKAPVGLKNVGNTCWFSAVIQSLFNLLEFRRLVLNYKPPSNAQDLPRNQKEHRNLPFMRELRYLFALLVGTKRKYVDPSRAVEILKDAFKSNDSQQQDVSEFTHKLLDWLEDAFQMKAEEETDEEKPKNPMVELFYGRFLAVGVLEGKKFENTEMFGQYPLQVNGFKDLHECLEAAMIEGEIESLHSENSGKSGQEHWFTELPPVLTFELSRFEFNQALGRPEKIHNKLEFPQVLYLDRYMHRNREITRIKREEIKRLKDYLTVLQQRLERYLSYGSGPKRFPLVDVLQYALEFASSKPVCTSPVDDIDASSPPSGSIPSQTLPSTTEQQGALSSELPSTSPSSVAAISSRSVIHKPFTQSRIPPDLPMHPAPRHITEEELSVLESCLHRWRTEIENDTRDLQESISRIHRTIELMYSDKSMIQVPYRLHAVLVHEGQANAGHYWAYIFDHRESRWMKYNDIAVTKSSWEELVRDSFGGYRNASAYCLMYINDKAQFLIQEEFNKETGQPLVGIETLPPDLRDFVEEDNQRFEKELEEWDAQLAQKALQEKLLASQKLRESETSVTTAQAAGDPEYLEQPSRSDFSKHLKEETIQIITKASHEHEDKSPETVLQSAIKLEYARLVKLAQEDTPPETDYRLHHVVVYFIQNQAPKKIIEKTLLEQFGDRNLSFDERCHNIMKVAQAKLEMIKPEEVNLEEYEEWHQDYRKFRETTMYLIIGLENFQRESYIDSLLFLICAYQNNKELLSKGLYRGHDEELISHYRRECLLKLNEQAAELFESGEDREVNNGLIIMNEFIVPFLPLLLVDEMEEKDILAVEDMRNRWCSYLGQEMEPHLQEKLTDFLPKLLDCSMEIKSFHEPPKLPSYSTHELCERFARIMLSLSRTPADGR
# Test: Ubiquitin-Rhodamine 110 Assay for USP25 Activity, Example A-2
# Format: biochemical
# Details: Ubiquitin-Rhodamine 110 assay, Example A-2; read-out: USP25 A-2 IC50 range
# Summary of the method: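 Cleavage of ubiquitin-rhodamine 110 (25 nM, well below Km) by His-tagged USP25 at 75 pM is measured fluorimetrically after 45 min at room temperature and acid quench. Inhibitors are preincubated with enzyme for 30 minutes. IC50 values come from four-parameter logistic curve fitting.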
row,SMILES,pIC50
1,"CCO[C@H]1CN(c2ccc3c(c2)OC[C@H](NC(=O)c2sc4nc(C)ccc4c2N)C3)C[C@@H]1N [Example 115, 3-amino-N-[(3R)-7-[(3S,4S)-3-amino-4-ethoxypyrrolidin-1-yl]-3,4-dihydro-2H-1-benzopyran-3-yl]-6-methylthieno[2,3-b]pyridine-2-carboxamide]",5.70 to 6.70
2,"CO[C@H]1CN(c2ccc3c(c2)CC[C@H](NC(=O)c2sc4nc(C)ccc4c2N)C3)C[C@@H]1N [Example 116, 3-amino-N-[(2S)-6-[(3S,4S)-3-amino-4-methoxypyrrolidin-1-yl}-1,2,3,4-tetrahydronaphthalen-2-yl]-6-methylthieno[2,3-b]pyridine-2-carboxamide]",5.70 to 6.70
3,"CO[C@H]1CN(c2ccc3c(c2)OC[C@H](NC(=O)c2sc4nc(C)cnc4c2N)C3)C[C@@H]1N [Example 117, 7-amino-N-[(3R)-7-[(3S,4S)-3-amino-4-methoxypyrrolidin-1-yl]-3,4-dihydro-2H-1-benzopyran-3-yl]-3-methylthieno[2,3-b]pyrazine-6-carboxamide]",5.70 to 6.70
4,"CO[C@H]1CN(c2ccc3c(c2)OC[C@H](NC(=O)c2sc4nc(C)sc4c2N)C3)C[C@@H]1N [Example 118, 6-amino-N-[(3R)-7-[(3S,4S)-3-amino-4-methoxypyrrolidin-1-yl]-3,4-dihydro-2H-1-benzopyran-3-yl]-2-methylthieno[2,3-d][1,3]thiazole-5-carboxamide]",5.70 to 6.70
5,"CO[C@H]1CCN(c2ccc3c(c2)OC[C@H](NC(=O)c2sc4nc(C)ccc4c2N)C3)C[C@@H]1N [Example 119, 3-amino-N-[(3R)-7-[(3S,4S)-3-amino-4-methoxypiperidin-1-yl}-3,4-dihydro-2H-1-benzopyran-3-yl]-6-methylthieno[2,3-b]pyridine-2-carboxamide]",5.70 to 6.70
6,"CO[C@@H]1CCN(c2ccc3c(c2)OC[C@H](NC(=O)c2sc4nc(C)ccc4c2N)C3)C[C@H]1N [Example 120, 3-amino-N-[(3R)-7-[(3R,4R)-3-amino-4-methoxypiperidin-1-yl]-3,4-dihydro-2H-1-benzopyran-3-yl]-6-methylthieno[2,3-b]pyridine-2-carboxamide]",5.70 to 6.70
7,"CO[C@@H]1CN(c2ccc3c(c2)OC[C@H](NC(=O)c2sc4nc(C)ccc4c2N)C3)C[C@@H]1N [Example 121, 3-amino-N-[(3R)-7-[(3S,4R)-3-amino-4-methoxypyrrolidin-1-yl]-3,4-dihydro-2H-1-benzopyran-3-yl]-6-methylthieno[2,3-b]pyridine-2-carboxamide]",5.70 to 6.70
8,"CO[C@H]1CN(c2ccc3c(c2)OC[C@H](NC(=O)c2sc4nc(C)ccc4c2N)C3)C[C@H]1N [Example 122, 3-amino-N-[(3R)-7-[(3R,4S)-3-amino-4-methoxypyrrolidin-1-yl]-3,4-dihydro-2H-1-benzopyran-3-yl]-6-methylthieno[2,3-b]pyridine-2-carboxamide]",5.70 to 6.70
9,"Cc1ccc2c(N)c(C(=O)N[C@H]3COc4cc([C@H]5C[C@@H](N)C5)ccc4C3)sc2n1 [Example 123, 3-amino-6-methyl-N-[(3R)-7-[(1s,3S)-3-aminocyclobutyl]-3,4-dihydro-2H-1-benzopyran-3-yl]thieno[2,3-b]pyridine-2-carboxamide]",5.70 to 6.70
10,"Cc1ccc2c(N)c(C(=O)N[C@H]3COc4cc([C@H]5C[C@H](N)C5)ccc4C3)sc2n1 [Example 124, 3-amino-6-methyl-N-[(3R)-7-[(1r,3r)-3-aminocyclobutyl]-3,4-dihydro-2H-1-benzopyran-3-yl]thieno[2,3-b]pyridine-2-carboxamide]",5.70 to 6.70
11,"Cc1ccc2c(N)c(C(=O)N[C@H]3COc4cc(C5CC6COCC(C5)N6)ccc4C3)sc2n1 (stereo partly drawn) [Example 125, 3-amino-6-methyl-N-[(3R)-7-{3-oxa-9-azabicyclo[3.3.1]nonan-7-yl}-3,4-dihydro-2H-1-benzopyran-3-yl]thieno[2,3-b]pyridine-2-carboxamide]",6.70 to 7.30
12,"Cc1ccc2c(N)c(C(=O)N[C@H]3COc4cc(N5CC6CCC(C5)N6)c(C#N)c(F)c4C3)sc2n1 [Example 126, 3-amino-N-[(3R)-6-cyano-7-{3,8-diazabicyclo[3.2.1]octan-3-yl}-5-fluoro-3,4-dihydro-2H-1-benzopyran-3-yl]-6-methylthieno[2,3-b]pyridine-2-carboxamide]",7.30 to 9.00
13,"Cc1ccc2c(N)c(C(=O)N[C@H]3COc4cc(N5CC6CNCC(C5)O6)c(C#N)c(F)c4C3)sc2n1 [Example 127, 3-amino-N-[(3R)-6-cyano-5-fluoro-7-{9-oxa-3,7-diazabicyclo[3.3.1]nonan-3-yl}-3,4-dihydro-2H-1-benzopyran-3-yl]-6-methylthieno[2,3-b]pyridine-2-carboxamide]",6.70 to 7.30
14,"CO[C@H]1CN(c2ccc3c(c2)OC[C@H](NC(=O)c2sc4nc(C)ccc4c2N)C3)CC[C@@H]1N [Example 128, 3-amino-N-[(3R)-7-[(3S,4S)-4-amino-3-methoxypiperidin-1-yl]-3,4-dihydro-2H-1-benzopyran-3-yl]-6-methylthieno[2,3-b]pyridine-2-carboxamide]",5.70 to 6.70
15,"CO[C@@H]1CN(c2ccc3c(c2)OC[C@H](NC(=O)c2sc4nc(C)ccc4c2N)C3)CC[C@H]1N [Example 129, 3-amino-N-[(3R)-7-[(3R,4R)-4-amino-3-methoxypiperidin-1-yl]-3,4-dihydro-2H-1-benzopyran-3-yl]-6-methylthieno[2,3-b]pyridine-2-carboxamide]",5.70 to 6.70
16,"CO[C@H]1CN(c2ccc3c(c2)CC[C@H](NC(=O)c2sc4nc(C)cnc4c2N)C3)C[C@@H]1N [Example 130, 7-amino-N-[(2S)-6-[(3S,4S)-3-amino-4-methoxypyrrolidin-1-yl]-1,2,3,4-tetrahydronaphthalen-2-yl]-3-methylthieno[2,3-b]pyrazine-6-carboxamide]",5.70 to 6.70
17,"CCn1ccc2cc(C(=O)N[C@H]3CCc4cc(N5C[C@H](OC)[C@@H](N)C5)ccc4C3)nnc21 [Example 131, N-[(2S)-6-[(3S,4S)-3-amino-4-methoxypyrrolidin-1-yl]-1,2,3,4-tetrahydronaphthalen-2-yl]-7-ethyl-7H-pyrrolo[2,3-c]pyridazine-3-carboxamide]",< 5.70
18,"CCn1ccc2cc(C(=O)N[C@H]3CCc4cc(N5C[C@H](OC)[C@@H](N)C5)ccc4C3)cnc21 [Example 132, N-[(2S)-6-[(3S,4S)-3-amino-4-methoxypyrrolidin-1-yl]-1,2,3,4-tetrahydronaphthalen-2-yl]-1-ethyl-1H-pyrrolo[2,3-b]pyridine-5-carboxamide]",< 5.70
19,"CO[C@H]1CN(c2ccc3c(c2)CC[C@H](NC(=O)c2sc4nc(C)sc4c2N)C3)C[C@@H]1N [Example 133, 6-amino-N-[(2S)-6-[(3S,4S)-3-amino-4-methoxypyrrolidin-1-yl]-1,2,3,4-tetrahydronaphthalen-2-yl]-2-methylthieno[2,3-d][1,3]thiazole-5-carboxamide]",< 5.70
20,"COc1ccc2c(N)c(C(=O)N[C@H]3CCc4cc(N5C[C@H](OC)[C@@H](N)C5)ccc4C3)sc2n1 [Example 134, 3-amino-N-[(2S)-6-[(3S,4S)-3-amino-4-methoxypyrrolidin-1-yl]-1,2,3,4-tetrahydronaphthalen-2-yl]-6-methoxythieno[2,3-b]pyridine-2-carboxamide]",< 5.70
21,"COc1nc2sc(C(=O)N[C@H]3CCc4cc(N5C[C@H](OC)[C@@H](N)C5)ccc4C3)c(N)c2cc1F [Example 135, 3-amino-N-[(2S)-6-[(3S,4S)-3-amino-4-methoxypyrrolidin-1-yl]-1,2,3,4-tetrahydronaphthalen-2-yl]-5-fluoro-6-methoxythieno[2,3-b]pyridine-2-carboxamide]",< 5.70
22,"CO[C@H]1CN(c2cc(F)c3c(c2)CC[C@H](NC(=O)c2sc4nc(C)ccc4c2N)C3)C[C@@H]1N [Example 136, 3-amino-N-[(2S)-6-[(3S,4S)-3-amino-4-methoxypyrrolidin-1-yl]-8-fluoro-1,2,3,4-tetrahydronaphthalen-2-yl]-6-methylthieno[2,3-b]pyridine-2-carboxamide]",< 5.70
23,"CO[C@H]1CN(c2cc(F)c3c(c2)CC[C@@H](NC(=O)c2sc4nc(C)ccc4c2N)C3)C[C@@H]1N [Example 137, 3-amino-N-[(2R)-6-[(3S,4S)-3-amino-4-methoxypyrrolidin-1-yl]-8-fluoro-1,2,3,4-tetrahydronaphthalen-2-yl]-6-methylthieno[2,3-b]pyridine-2-carboxamide]",< 5.70

# Source: patent publication US11524966B1 (Valo Early Discovery, Inc., priority 2017, dated 2022)
